Test results from US20130216498A1, “IMIDAZOPYRIDINE DERIVATIVES AS JAK INHIBITORS” (priority 2009, published 2013).

What was measured:
Assay type in all cases: biochemical
[1] = target: T1, human JAK1 (aa 850-1154) catalytic domain (Homo sapiens, UniProt P23458); experiment: In vitro JAK kinase assay (TR-FRET), JAK1; conditions: GST-fusion catalytic domain; ATP 3 μM; poly (GT)-Biotin 60 nM; 30 minutes at room temperature
T1 construct: human JAK1 (aa 850-1154); GST (N); purchased Carna Biosciences; host or cells: baculovirus expression system
T1 sequence (P23458 850-1154): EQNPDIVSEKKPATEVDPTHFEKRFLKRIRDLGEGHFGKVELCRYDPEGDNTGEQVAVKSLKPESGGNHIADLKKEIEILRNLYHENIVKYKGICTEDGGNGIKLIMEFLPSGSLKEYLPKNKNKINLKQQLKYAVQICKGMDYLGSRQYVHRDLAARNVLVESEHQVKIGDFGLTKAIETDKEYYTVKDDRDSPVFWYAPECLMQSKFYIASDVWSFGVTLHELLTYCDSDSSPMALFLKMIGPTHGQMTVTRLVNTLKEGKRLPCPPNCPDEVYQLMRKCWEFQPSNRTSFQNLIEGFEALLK
Description: (§1) Compounds were screened for their ability to inhibit JAK1, JAK2 and JAK3 using the assays as indicated below.
(§2) The catalytic domains of human JAK1 (aa 850-1154), JAK2 (aa 826-1132), JAK3 (aa 795-1124) and Tyk2 (aa 871-1187) were expressed as N-terminal GST-fusion proteins using a baculovirus expression system and were purchased from Carna Biosciences. The enzymatic activity was assayed using as substrate a biotinylated peptide, poly (GT)-Biotin (CisBio). The peptide concentration in the reactions was 60 nM for JAK1, 20 nM for JAK2, 140 nM for JAK3 and 50 nM for Tyk2. The degree of phosphorylation was detected by TR-FRET (time-resolved fluorescence energy transfer).
(§3) IC50s of compounds were measured for each kinase in a reaction mixture containing the enzyme, ATP and the peptide in 8 mM MOPS (pH 7.0), 10 mM MgCl2, 0.05% β-mercaptoethanol, 0.45 mg/mL BSA. The ATP concentration in the reactions was 3 μM for JAK1, 0.2 μM for JAK2, 0.6 μM for JAK3 and 1.8 μM for Tyk2. The enzymatic reactions took place for 30 minutes at room temperature. Then, the reactions were stopped with 20 μL of quench detection buffer (50 mM HEPES, 0.5 M KF, EDTA 0.25 M, 0.1% (w/v) BSA, pH 7.5) containing 0.115 μg/mL of anti-phosphoTyr (PT66)-Cryptate (CisBio) and a variable concentration of SA-XL665 (CisBio) to keep the SA-B ratio constant. Incubate for 3 h and read on Victor 2V spectrofluorometer (PerkinElmer) set to read fluorescence resonance energy transfer.

[2] = target: T2, human JAK2 (aa 826-1132) catalytic domain (Homo sapiens, UniProt O60674); experiment: In vitro JAK kinase assay (TR-FRET), JAK2; conditions: GST-fusion catalytic domain; ATP 0.2 μM; poly (GT)-Biotin 20 nM; 30 minutes at room temperature
T2 construct: JAK2 (aa 826-1132); GST (N); purchased Carna Biosciences; host or cells: baculovirus expression system
T2 sequence (O60674 826-1132): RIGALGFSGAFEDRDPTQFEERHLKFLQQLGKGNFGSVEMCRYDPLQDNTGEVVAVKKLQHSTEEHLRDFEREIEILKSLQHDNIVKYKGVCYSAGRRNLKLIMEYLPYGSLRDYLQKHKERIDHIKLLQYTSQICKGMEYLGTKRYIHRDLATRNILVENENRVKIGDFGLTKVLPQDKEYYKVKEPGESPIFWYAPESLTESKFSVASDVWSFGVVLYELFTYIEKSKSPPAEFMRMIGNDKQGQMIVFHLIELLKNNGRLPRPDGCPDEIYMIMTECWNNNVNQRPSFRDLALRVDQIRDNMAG
Description: as §1, §2, §3

[3] = target: T3, human JAK3 (aa 795-1124) catalytic domain (Homo sapiens, UniProt P52333); experiment: In vitro JAK kinase assay (TR-FRET), JAK3; conditions: GST-fusion catalytic domain; ATP 0.6 μM; poly (GT)-Biotin 140 nM; 30 minutes at room temperature
T3 construct: JAK3 (aa 795-1124); GST (N); purchased Carna Biosciences; host or cells: baculovirus expression system
T3 sequence (P52333 795-1124): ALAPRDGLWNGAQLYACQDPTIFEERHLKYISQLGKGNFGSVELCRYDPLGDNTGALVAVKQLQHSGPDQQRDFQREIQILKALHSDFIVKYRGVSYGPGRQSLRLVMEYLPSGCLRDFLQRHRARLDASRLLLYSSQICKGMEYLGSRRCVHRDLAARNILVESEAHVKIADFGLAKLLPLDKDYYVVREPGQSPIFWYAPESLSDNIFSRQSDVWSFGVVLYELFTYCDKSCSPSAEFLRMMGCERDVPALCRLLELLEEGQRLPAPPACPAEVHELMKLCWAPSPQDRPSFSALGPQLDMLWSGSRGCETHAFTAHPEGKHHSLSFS
Description: as §1, §2, §3

| Compound | IC50 [1] [nM] | IC50 [2] [nM] | IC50 [3] [nM] |
| --- | --- | --- | --- |
| C[C@@H](c1ccc(F)cn1)N(C)c1nc(-c2cnc3ccc(F)cn23)ncc1C(=O)O [Example 145, (S)-2-(6-Fluoroimidazo[1,2-a]pyridin-3-yl)-4-((1-(5-fluoropyridin-2-yl)ethyl)(methyl)amino)pyrimidine-5-carboxylic acid] | 100 to 1000 | < 100 | 100 to 1000 |
| CCC[C@H](Nc1nc(-c2cnc3ccc(F)cn23)ncc1C(N)=O)c1ccc(F)cc1 [Example 151, (S)-2-(6-Fluoroimidazo[1,2-a]pyridin-3-yl)-4-(1-(4-fluorophenyl)butylamino) pyrimidine-5-carboxamide] | 100 to 1000 | < 100 | < 100 |
| N#CC[C@H]1CC[C@H](Nc2nc(-c3cnc4ccc(F)cn34)ncc2C(N)=O)CC1 [Example 153, 4-((1r,4r)-4-(Cyanomethyl)cyclohexylamino)-2-(6-fluoroimidazo[1,2-a]pyridin-3-yl)pyrimidine-5-carboxamide] | > 1000 | < 100 | < 100 |
| CS(=O)(=O)c1cnc(-c2cnc3ccc(F)cn23)nc1N[C@@H]1CCCN(C(=O)CC#N)C1 [Example 159, (R)-3-(3-(2-(6-Fluoroimidazo[1,2-a]pyridin-3-yl)-5-(methylsulfonyl)pyrimidin-4-ylamino)piperidin-1-yl)-3-oxopropanenitrile] | > 1000 | < 100 | 100 to 1000 |
| COc1cnc(-c2cnc3ccc(F)cn23)nc1N[C@@H]1CCCN(C(=O)CC#N)C1 [Example 163, (R)-3-(3-(2-(6-Fluoroimidazo[1,2-a]pyridin-3-yl)-5-methoxypyrimidin-4-ylamino)piperidin-1-yl)-3-oxopropanenitrile] | 100 to 1000 | < 100 | < 100 |
| N#CCC(=O)N1CCC[C@@H](Nc2cc(-n3cncn3)nc(-c3cnc4ccc(F)cn34)n2)C1 [Example 164, (R)-3-(3-(2-(6-Fluoroimidazo[1,2-a]pyridin-3-yl)-6-(M−1,2,4-triazol-1-yl)pyrimidin-4-ylamino)piperidin-1-yl)-3-oxopropanenitrile] | 100 to 1000 | < 100 | < 100 |
| N#CCC(=O)N1CCC[C@@H](Nc2cc(N3CCNCC3)nc(-c3cnc4ccc(F)cn34)n2)C1 [Example 166, (R)-3-(3-(2-(6-Fluoroimidazo[1,2-a]pyridin-3-yl)-6-(piperazin-1-yl)pyrimidin-4-ylamino)piperidin-1-yl)-3-oxopropanenitrile] | 100 to 1000 | < 100 | < 100 |
| N#CCC(=O)N1CCC[C@@H](Nc2cc(N3CCC[C@H]3C(=O)O)nc(-c3cnc4ccc(F)cn34)n2)C1 [Example 172] | 100 to 1000 | < 100 | 100 to 1000 |
| N#CCC(=O)N1CCC[C@@H](Nc2cc(OCCN3CCOCC3)nc(-c3cnc4ccc(F)cn34)n2)C1 [Example 175, (R)-3-(3-(2-(6-Fluoroimidazo[1,2-a]pyridin-3-yl)-6-(2-morpholinoethoxy)pyrimidin-4-ylamino)piperidin-1-yl)-3-oxopropanenitrile] | < 100 | < 100 | < 100 |
| N#CCC(=O)N1CCC[C@@H](Nc2cc(C(=O)O)nc(-c3cnc4ccc(F)cn34)n2)C1 [Example 181, (R)-6-(1-(2-Cyanoacetyl)piperidin-3-ylamino)-2-(6-fluoroimidazo[1,2-a]pyridin-3-yl)pyrimidine-4-carboxylic acid] | 100 to 1000 | < 100 | 100 to 1000 |
| N#CCC(=O)N1CCC[C@@H](Nc2cc(N)nc(-c3cnc4ccc(F)cn34)n2)C1 [Example 183, (R)-3-(3-(6-Amino-2-(6-fluoroimidazo[1,2-a]pyridin-3-yl)pyrimidin-4-ylamino)piperidin-1-yl)-3-oxopropanenitrile] | < 100 | < 100 | < 100 |
| O=C([C@H](O)CO)N1CCC[C@@H](Nc2nc(-c3cnc4ccc(F)cn34)nc(N3CCOCC3)c2F)C1 [Example 185, (R)-1-((R)-3-(5-Fluoro-2-(6-fluoroimidazo[1,2-a]pyridin-3-yl)-6-morpholinopyrimidin-4-ylamino)piperidin-1-yl)-2,3-dihydroxypropan-1-one] | 100 to 1000 | < 100 | 100 to 1000 |
